Columns and labels:
[1] = tested on: human ovarian cancer cells A2780; test: proliferation inhibitory activity against human ovarian cancer cell A2780 (CellTiter-Glo); assay type: cell-based; conditions: A2780, 72 h, 1 μM test compound, 3 days of culture, read-out: proliferation inhibitory rate (%) of A2780 cells
Protocol: The proliferation inhibitory activity of the compound of the present invention against human ovarian cancer cell A2780 was evaluated by the following method.
Human ovarian cancer cells A2780 were seeded in a 384 well culture plate at 1000 cells in 30 μL of medium per well by using RPMI-1640 medium (Wako Pure Chemical Industries, Ltd.) containing 10% fetal bovine serum and penicillin/streptomycin. The next day, 10 μL of RPMI-1640 medium containing the test compound was added to the cells. After 3 days of culture, 20 μL of CellTiter-Glo Luminescent Cell Viability Assay solution (Promega) was added. The luminescence signal was measured using EnVision (PerkinElmer) and the inhibitory rate (%) of the test compound was calculated with a well free of seeding of cell as 100% inhibition.

[2] = target: T1, human PRS protein (His-Avi-hEPRS (998-1512)) (Homo sapiens, UniProt P07814); test: PRS inhibitory activity ([32P]pyrophosphate exchange enzyme assay); assay type: biochemical; conditions: 300 nM test compound; read-out: inhibitory rate (%) of PRS
T1 construct: to construct His-Avi-hEPRS (998-1512) expression plasmid; His tag (N); Avi tag (N); TEV cleavage site (ENLYFQG, then S; inferred from the forward primer hEPRS-TEV-NheF) (N); made in house; host or cells: E. coli BL21(DE3)
T1 sequence (P07814 998-1512 limits assumed): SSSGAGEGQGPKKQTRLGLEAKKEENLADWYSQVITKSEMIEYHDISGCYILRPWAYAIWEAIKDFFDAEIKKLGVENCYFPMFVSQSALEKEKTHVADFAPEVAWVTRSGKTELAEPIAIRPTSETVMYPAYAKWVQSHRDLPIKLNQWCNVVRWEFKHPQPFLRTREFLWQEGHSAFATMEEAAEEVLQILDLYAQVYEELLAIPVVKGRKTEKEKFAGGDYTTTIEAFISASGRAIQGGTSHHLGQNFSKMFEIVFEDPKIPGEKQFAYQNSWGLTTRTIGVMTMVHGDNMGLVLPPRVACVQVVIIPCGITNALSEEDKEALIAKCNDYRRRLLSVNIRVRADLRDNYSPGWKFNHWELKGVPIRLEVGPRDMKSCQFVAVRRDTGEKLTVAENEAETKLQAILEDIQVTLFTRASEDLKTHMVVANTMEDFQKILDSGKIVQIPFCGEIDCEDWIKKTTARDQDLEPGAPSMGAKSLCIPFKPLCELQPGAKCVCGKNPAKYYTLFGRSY
Protocol: The PRS inhibitory activity of the compounds of the present invention was evaluated by the following method.
An expression plasmid of Catalytic Domain of human EPRS was obtained by PCR using human skeletal muscle cDNA Library (Takara Bio Inc.) as a template and 2 kinds of Primers 5′-[…]-3′ (hEPRS-TEV-NheF) (SEQ ID NO: 1) and 5′-[…]-3′ (hEPRS-St-Not-R) (SEQ ID NO: 2). PCR was performed using PrimeStar GXL DNA Polymerase (Takara Bio Inc.) and included (1) 98° C., 1 min, (2) 35 cycles of 98° C., 10 sec, 65° C., 10 sec, 72° C., 1 min, and (3) reaction at 72° C., 1 min. This was cleaved with Nhe I and Not I (Takara Bio Inc.) and inserted using Ligation High (TOYOBO CO., LTD.) into the Nhe I/Not I site of pET21a (Novagen) with His-Avitag inserted thereinto. This was introduced into ECOS JM109 (NIPPON GENE CO., LTD.) to construct His-Avi-hEPRS (998-1512) expression plasmid.
Recombinant human PRS protein was prepared by transforming the His-Avi-hEPRS (998-1512) expression plasmid prepared above into ECOS Competent E. coli BL21(DE3) (NIPPON GENE CO., LTD.). Escherichia coli obtained by transformation was inoculated into 300 mL of LB medium (1% peptone, 0.5% yeast extract, 0.5% sodium chloride, 0.01% ampicillin) and cultured at 30° C. for 16 hr. The obtained culture medium was transferred into a jar culture tank charged with 6 L of the main fermentation medium (0.3% potassium dihydrogen phosphate, 0.6% disodium hydrogen phosphate, 0.1% ammonium chloride, 0.05% sodium chloride, 0.024% magnesium sulfate, 0.02% NEWPOL LB-625, 1.5% sorbitol, 1.5% casamino acid, 0.5% yeast extract, 0.01% ampicillin) and culturing was started at 37° C., quantity of airflow 5 L/min, stirring rotating speed 400 rpm. At the time point when the turbidity of the culture medium reached about 550 Klett units, the culture temperature was lowered to 16° C., isopropyl-β-D-thiogalactopyranoside (IPTG) was added to the final concentration 0.1 mM, and culturing was performed for another 16 hr to induce expression of human PRS. After completion of culturing, the culture medium was centrifuged at 5,000 rpm for 10 min. The obtained human PRS expressing Escherichia coli was suspended in a buffer containing 50 mM Tris-HCl (pH 8.0), 150 mM NaCl, 1 mM DTT, 5 U/ml Benzonase, 20 mM Imidazole and sonicated using Sonifier (BRANSON). The homogenate was centrifuged (33,000×G, 60 min, Beckman Coulter), the obtained supernatant was subjected to adsorption by passage through Ni-NTA Superflow (QIAGEN) column equilibrated in advance with 50 mM Tris-HCl (pH 8.0), 300 mM NaCl, 1 mM DTT, and elution was performed with a buffer containing 50 mM Tris-HCl (pH 8.0), 300 mM NaCl, 1 mM DTT, 250 mM Imidazole. Furthermore, gel filtration was performed using Superdex200 pg column equilibrated in advance with a buffer containing 50 mM Tris-HCl (pH 8.0), 150 mM NaCl, 1 mM DTT, 10% glycerol to give purified human PRS protein. The protein concentration was measured using BCA Protein Assay Kit (PIERCE) and BSA as the standard.
A test compound was dissolved in 5 μL of an assay buffer (50 mM Tris-HCl (pH 7.5), 20 mM KCl, 1 mM DTT, 0.01% Tween 20) and incubated for 60 min with 5 μL of 40 nM human PRS protein dissolved in the assay buffer containing 40 mM MgCl2. An enzyme reaction of the human PRS protein was started by adding 10 μL of a substrate solution containing 300 μM ATP, 160 μM L-Proline, 400 μM pyrophosphate, [^32P]pyrophosphate (PerkinElmer) prepared to 1 MBq/mL. After incubation at room temperature for 30 min, the reaction was discontinued by adding 50 μL of discontinuation/washing solution (1M HCl, 200 mM sodium pyrophosphate) to the reaction mixture. The reaction solution was transferred to a filter plate (Merck Millipore, Billerica, Mass.) previously added with 200 μL of charcoal solution (0.5% HCl solution containing 10% charcoal (w/v)). […]

O=C(NCc1ccccc1Cl)c1ncnc2nc(C3CCCC3)[nH]c12 [Example 1, N-(2-chlorobenzyl)-8-cyclopentyl-7H-purine-6-carboxamide]
inhibition at 1 µM [1]: 60% | inhibition at 0.3 µM [2]: 98%

Cn1cc(-c2cc(F)cc(CNC(=O)c3ncnc4nc(C5CCCC5)[nH]c34)c2)cn1 [Example 2, 8-cyclopentyl-N-(3-fluoro-5-(1-methyl-1H-pyrazol-4-yl)benzyl)-7H-purine-6-carboxamide]
inhibition at 1 µM [1]: 97% | inhibition at 0.3 µM [2]: 101%

Cn1cc(-c2cc(F)cc(CNC(=O)c3ncnc4nc(C5CCCC5)n(C)c34)c2)cn1 [Example 3, 8-cyclopentyl-N-(3-fluoro-5-(1-methyl-1H-pyrazol-4-yl)benzyl)-7-methyl-7H-purine-6-carboxamide]
inhibition at 1 µM [1]: 99% | inhibition at 0.3 µM [2]: 101%

Cn1cc(-c2cc(F)cc(CNC(=O)c3ncnc4nc(C5CCCC5)n(C)c34)c2)ccc1=O [Example 4, 8-cyclopentyl-N-(3-fluoro-5-(1-methyl-6-oxo-1,6-dihydropyridin-3-yl)benzyl)-7-methyl-7H-purine-6-carboxamide]
inhibition at 1 µM [1]: 99% | inhibition at 0.3 µM [2]: 101%

Cn1cc(-c2cc(F)c(F)c(CNC(=O)c3ncnc4nc(C5CCCC5)n(C)c34)c2)cn1 [Example 5, 8-cyclopentyl-N-(2,3-difluoro-5-(1-methyl-1H-pyrazol-4-yl)benzyl)-7-methyl-7H-purine-6-carboxamide]
inhibition at 1 µM [1]: 98% | inhibition at 0.3 µM [2]: 102%

Cc1cc(N2OCC(C)(C)C2=O)cc(C(=O)NCc2cc(F)cc(-c3cnn(C)c3)c2)n1 [Example 179, 4-(4,4-dimethyl-3-oxo-1,2-oxazolidin-2-yl)-N-(3-fluoro-5-(1-methyl-1H-pyrazol-4-yl)benzyl)-6-methylpyridine-2-carboxamide]
inhibition at 0.3 µM [2]: 93%

Cc1cc(N2CC[C@@](C#N)(C3CC3)C2=O)cc(C(=O)NCc2cc(F)cc(-c3cncnc3)c2)n1 [Example 205, 4-((3S)-3-cyano-3-cyclopropyl-2-oxopyrrolidin-1-yl)-N-(3-fluoro-5-(pyrimidin-5-yl)benzyl)-6-methylpyridine-2-carboxamide]
inhibition at 0.3 µM [2]: 86%

Cc1cc(N2CC[C@@](C#N)(C3CC3)C2=O)cc(C(=O)NCc2cc(-c3cnn(C)c3)cc(C(F)(F)F)c2)n1 [Example 218, 4-((3S)-3-cyano-3-cyclopropyl-2-oxopyrrolidin-1-yl)-6-methyl-N-(3-(1-methyl-1H-pyrazol-4-yl)-5-(trifluoromethyl)benzyl)pyridine-2-carboxamide]
inhibition at 0.3 µM [2]: 83%

CCc1cc(N2CC[C@@](C#N)(C3CC3)C2=O)cc(C(=O)NCc2cc(F)cc(-c3cnn(C)c3)c2)n1 [Example 219, 4-((3S)-3-cyano-3-cyclopropyl-2-oxopyrrolidin-1-yl)-6-ethyl-N-(3-fluoro-5-(1-methyl-1H-pyrazol-4-yl)benzyl)pyridine-2-carboxamide]
inhibition at 0.3 µM [2]: 94%

COc1cc(N2CC[C@@](C#N)(C3CC3)C2=O)cc(C(=O)NCc2cc(F)cc(-c3cnn(C)c3)c2)n1 [Example 224, 4-((3S)-3-cyano-3-cyclopropyl-2-oxopyrrolidin-1-yl)-N-(3-fluoro-5-(1-methyl-1H-pyrazol-4-yl)benzyl)-6-methoxypyridine-2-carboxamide]
inhibition at 0.3 µM [2]: 74%

Cn1cc(-c2cc(F)cc(CNC(=O)c3cc(N4CC[C@@](C#N)(C5CC5)C4=O)cc(C4CC4)n3)c2)cn1 [Example 225, 4-((3S)-3-cyano-3-cyclopropyl-2-oxopyrrolidin-1-yl)-6-cyclopropyl-N-(3-fluoro-5-(1-methyl-1H-pyrazol-4-yl)benzyl)pyridine-2-carboxamide]
inhibition at 0.3 µM [2]: 66%

Cc1cc(N2CCN(C(C)C)C2=O)cc(C(=O)NCc2cc(F)cc(-c3cnn(C)c3)c2)n1 [Example 226, N-(3-fluoro-5-(1-methyl-1H-pyrazol-4-yl)benzyl)-4-(3-isopropyl-2-oxoimidazolidin-1-yl)-6-methylpyridine-2-carboxamide]
inhibition at 0.3 µM [2]: 91%

Cc1cc(N2CCC(C#N)(CC3CC3)C2=O)cc(C(=O)NCc2cc(F)cc(-c3cnn(C)c3)c2)n1 (stereo not drawn) [Example 230, 4-(3-cyano-3-(cyclopropylmethyl)-2-oxopyrrolidin-1-yl)-N-(3-fluoro-5-(1-methyl-1H-pyrazol-4-yl)benzyl)-6-methylpyridine-2-carboxamide]
inhibition at 0.3 µM [2]: 91%

Cc1cc(N2CCC(C3CC3)C2=O)cc(C(=O)NCc2cc(F)cc(-c3cnn(C)c3)c2)n1 (stereo not drawn) [Example 234, 4-(3-cyclopropyl-2-oxopyrrolidin-1-yl)-N-(3-fluoro-5-(1-methyl-1H-pyrazol-4-yl)benzyl)-6-methylpyridine-2-carboxamide]
inhibition at 0.3 µM [2]: 87%

Cc1cc(N2CCC(CO)(C3CC3)C2=O)cc(C(=O)NCc2cc(F)cc(-c3cnn(C)c3)c2)n1 (stereo not drawn) [Example 235, 4-(3-cyclopropyl-3-(hydroxymethyl)-2-oxopyrrolidin-1-yl)-N-(3-fluoro-5-(1-methyl-1H-pyrazol-4-yl)benzyl)-6-methylpyridine-2-carboxamide]
inhibition at 0.3 µM [2]: 69%

Cc1nc(C(=O)NCc2cc(F)cc(-c3cnn(C)c3)c2)cc(N2CC[C@@](C#N)(C3CC3)C2=O)n1 [Example 237, 6-((3S)-3-cyano-3-cyclopropyl-2-oxopyrrolidin-1-yl)-N-(3-fluoro-5-(1-methyl-1H-pyrazol-4-yl)benzyl)-2-methylpyrimidine-4-carboxamide]
inhibition at 0.3 µM [2]: 74%

— patent publication US10774083B2, “Heterocyclic amide compound” (TAKEDA PHARMACEUTICAL COMPANY LIMITED, priority 2016, dated 2020)
